Laboratory results: US20240270762A1, “PENICILLIN-BINDING PROTEIN INHIBITORS” (priority 2021, published 2024)
Values after ≈ are worked out from the molar mass of the structure shown.

Tests used:
[1] = test system: N. gonorrhoeae WHO L; experiment: Liquid broth MIC in Fastidious broth; conditions: Neisseria gonorrhoeae, read-out: Minimum Inhibitory Concentration (MIC), N. gonorrhoeae WHO L
[2] = test system: N. gonorrhoeae FA1090; experiment: Liquid broth MIC in Fastidious broth; conditions: Neisseria gonorrhoeae, FA1090, read-out: Minimum Inhibitory Concentration (MIC), N. gonorrhoeae FA 1090
[3] = test system: A. baumannii ATCC 19606; experiment: microbe, parasite or virus in culture; assay type: cell-based; conditions: Acinetobacter baumannii, ATCC19606, read-out: MIC, A. baumannii ATCC 19606
[4] = test system: N. gonorrhoeae CDC-0197; experiment: Liquid broth MIC in Fastidious broth; conditions: Neisseria gonorrhoeae, CDC0197, read-out: Minimum Inhibitory Concentration (MIC), N. gonorrhoeae CDC-0197
[5] = test system: N. gonorrhoeae WHO M; experiment: Liquid broth MIC in Fastidious broth; conditions: Neisseria gonorrhoeae, read-out: Minimum Inhibitory Concentration (MIC), N. gonorrhoeae WHO M
[6] = test system: N. gonorrhoeae ATCC 49226; experiment: Liquid broth MIC in Fastidious broth; conditions: Neisseria gonorrhoeae, ATCC49226, read-out: Minimum Inhibitory Concentration (MIC), N. gonorrhoeae ATCC 49226
Description: (§1) Additional antibacterial testing of the series was performed in 8 reference strains of N. gonorrhoeae (ATCC 49226, FA1090, MS 11, WHO G, WHO L, WHO M, WHO K, WHO X, WHO Z, WHO Q, CDC-0197). ATCC 49226, FA1090, MS11, WHO G, WHO L, and WHO M produce wild type or wild-type like PBP2. WHO K, WHO X, WHO Z, WHO Q, and CDC-0197 produce mosaic PBP2. Liquid broth-based assays were used for antibacterial testing of PBP inhibitors in Neisseria gonorrhoeae. Briefly, cryo-preserved bacterial cultures of clinical strains were streaked for isolation on Chocolate Agar (72 g/L (2×) GC Agar Base (BD #228950) and 2% (2×) Hemoglobin was autoclaved at 121° C. for 20 minutes to sterilize. Once cooled to ˜50° C. the 2×GC Agar Base and 2× Hemoglobin solutions are combined and 1% IsoVitaleX Enrichment (BD #211876) was added to the solution). Strains were incubated at 36° C. and 5% CO2 to allow growth of colonies, 24 hours before inoculum preparation. 2-fold serial dilutions of test compounds were conducted in a 96 well plate with a final volume of 75 μL per well at 2-fold the final desired concentration in Fastidious broth (Remel #R07664). For preparation of assay inoculum, a direct suspension was prepared by aseptically swabbing 10-15 colonies from agar plates into culture tubes containing 2 mL of fresh sterile saline. After the dilution plates were set up, direct suspensions were then diluted in a cuvette containing sterile saline and the optical density was measured at 600 nm. Inocula were diluted such that 75 μL of this culture in Fastidious broth results in a starting bacterial concentration of 5×10^5 CFU/mL when added to the dilution plates. The plates were incubated for ˜24 hours at 36° C. and 5% CO2.

[7] = test system: P. aeruginosa ATCC 35151; experiment: microbe, parasite or virus in culture; assay type: cell-based; conditions: Pseudomonas aeruginosa, ATCC35151, read-out: MIC P. aeruginosa ATCC 35151
[8] = test system: K. pneumoniae 848844; experiment: microbe, parasite or virus in culture; assay type: cell-based; conditions: Klebsiella pneumoniae, 848844, read-out: MIC K. pneumoniae 848844
[9] = test system: K. pneumoniae SI-117; experiment: microbe, parasite or virus in culture; assay type: cell-based; conditions: Klebsiella pneumoniae, SI117, read-out: MIC K. pneumoniae SI-117
[10] = test system: N. gonorrhoeae WHO X; experiment: Liquid broth MIC in Fastidious broth; conditions: Neisseria gonorrhoeae, read-out: Minimum Inhibitory Concentration (MIC), N. gonorrhoeae WHO X
[11] = test system: E. coli D22; experiment: microbe, parasite or virus in culture; assay type: cell-based; conditions: Escherichia coli, D22, read-out: MIC E. coli D22
[12] = test system: E. coli AG100A; experiment: Broth microdilution MIC in CAMHB; assay type: cell-based; conditions: Escherichia coli, read-out: MIC E. coli AG100A
[13] = test system: P. aeruginosa (ΔmexAB-oprM); experiment: Broth microdilution MIC in CAMHB; assay type: cell-based; conditions: Pseudomonas aeruginosa; read-out: MIC P. aeruginosa ΔmexAB-oprM
[14] = molecular target: T1, PBP3 from Escherichia coli (K-12) (Escherichia coli, UniProt P0AD68); experiment: Bocillin-FL fluorescence polarization competition binding, E. coli PBP3
T1 construct: made in house
In short: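 Purified PBPs pre-incubated with inhibitor (E. coli PBP3 1.5 μM, 30 min; P. aeruginosa PBP3 0.75 μM, A. baumannii PBP1a 1 μM and PBP3 0.2 μM, 15 min), then Bocillin-FL 0.1 μM (0.05 μM for PBP1a) added; FP read up to 60 min. EC50 = concentration halving bound Bocillin-FL.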

[15] = test system: E. coli AG100; experiment: microbe, parasite or virus in culture; assay type: cell-based; conditions: Escherichia coli, AG100, read-out: MIC E. coli AG100
[16] = test system: N. gonorrhoeae WHO G; experiment: Liquid broth MIC in Fastidious broth; conditions: Neisseria gonorrhoeae, read-out: Minimum Inhibitory Concentration (MIC), N. gonorrhoeae WHO G
Description: as §1

T1 sequence (P0AD68 1-577): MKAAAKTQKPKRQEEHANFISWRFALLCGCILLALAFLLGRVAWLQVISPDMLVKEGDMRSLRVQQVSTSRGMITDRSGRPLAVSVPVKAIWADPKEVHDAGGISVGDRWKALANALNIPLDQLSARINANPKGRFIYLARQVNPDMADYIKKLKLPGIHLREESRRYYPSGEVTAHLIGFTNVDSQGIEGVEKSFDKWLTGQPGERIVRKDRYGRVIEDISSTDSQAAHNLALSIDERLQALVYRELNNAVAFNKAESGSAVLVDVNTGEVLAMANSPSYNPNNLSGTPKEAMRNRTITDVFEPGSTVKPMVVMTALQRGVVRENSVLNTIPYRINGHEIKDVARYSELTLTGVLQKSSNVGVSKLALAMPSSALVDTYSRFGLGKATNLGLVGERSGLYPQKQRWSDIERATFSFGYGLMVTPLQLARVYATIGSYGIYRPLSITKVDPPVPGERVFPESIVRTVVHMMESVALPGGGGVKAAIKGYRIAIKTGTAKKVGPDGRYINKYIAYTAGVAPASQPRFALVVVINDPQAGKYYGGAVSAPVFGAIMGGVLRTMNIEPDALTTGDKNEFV

Structure (SMILES) | MIC [1] | MIC [2] | MIC [3] | MIC [4] | MIC [5] | MIC [6] | MIC [7] | MIC [8] | MIC [9] | MIC [10] | MIC [11] | MIC [12] | MIC [13] | EC50 [14] | MIC [15] | MIC [16]
CS(=O)(=O)N1CCC[C@@H]1C(=O)N[C@@H](C(=O)N[C@H]1Cc2cccc(C(=O)O)c2OB1O)c1ccc(P(=O)(O)O)cc1 [Example 35, (R)-2-hydroxy-3-((R)-2-((R)-1-(methylsulfonyl)pyrrolidine-2-carboxamido)-2-(4-phosphonophenyl)acetamido)-3,4-dihydro-2H-benzo[e][1,2]oxaborinine-8-carboxylic acid] | 16 to 32 µg/mL (≈ 26.9 to 53.8 µM) | < 1 µg/mL | > 128 µg/mL | 4 to 8 µg/mL (≈ 6.72 to 13.4 µM) | < 1 µg/mL | 1 to 2 µg/mL (≈ 1.68 to 3.36 µM) | 2 to 4 µg/mL (≈ 3.36 to 6.72 µM) | > 128 µg/mL | > 128 µg/mL | 16 to 32 µg/mL (≈ 26.9 to 53.8 µM) | 8 to 16 µg/mL (≈ 13.4 to 26.9 µM) | > 128 µg/mL | > 128 µg/mL | 10 to 50 µM | > 128 µg/mL | 1 to 2 µg/mL (≈ 1.68 to 3.36 µM)
O=C(O)c1cccc2c1OB(O)[C@@H](NC(=O)[C@@H](NC(=O)N1CCCCC1=O)c1ccc(P(=O)(O)O)cc1)C2 [Example 36, (R)-2-hydroxy-3-((S)-2-(2-oxopiperidine-1-carboxamido)-2-(4-phosphonophenyl)acetamido)-3,4-dihydro-2H-benzo[39e][1,2]oxaborinine-8-carboxylic acid] | 16 to 32 µg/mL (≈ 29.3 to 58.7 µM) | 1 to 2 µg/mL (≈ 1.83 to 3.67 µM) | > 128 µg/mL | 16 to 32 µg/mL (≈ 29.3 to 58.7 µM) | 1 to 2 µg/mL (≈ 1.83 to 3.67 µM) | 16 to 32 µg/mL (≈ 29.3 to 58.7 µM) | 8 to 16 µg/mL (≈ 14.7 to 29.3 µM) | > 128 µg/mL | > 128 µg/mL | 16 to 32 µg/mL (≈ 29.3 to 58.7 µM) | 32 to 64 µg/mL (≈ 58.7 to 117 µM) | > 128 µg/mL | > 128 µg/mL | 50 to 250 µM | > 128 µg/mL | 4 to 8 µg/mL (≈ 7.34 to 14.7 µM)
O=C(O)c1cccc2c1OB(O)[C@@H](NC(=O)[C@H](NC(=O)N1CCCCC1=O)c1ccc(P(=O)(O)O)cc1)C2 [Example 37, (R)-2-hydroxy-3-((R)-2-(2-oxopiperidine-1-carboxamido)-2-(4-phosphonophenyl)acetamido)-3,4-dihydro-2H-benzo[e][1,2]oxaborinine-8-carboxylic acid] | 16 to 32 µg/mL (≈ 29.3 to 58.7 µM) | < 1 µg/mL | > 128 µg/mL | 1 to 2 µg/mL (≈ 1.83 to 3.67 µM) | < 1 µg/mL | < 1 µg/mL | < 1 µg/mL | > 128 µg/mL | > 128 µg/mL | 16 to 32 µg/mL (≈ 29.3 to 58.7 µM) | 8 to 16 µg/mL (≈ 14.7 to 29.3 µM) | 32 to 64 µg/mL (≈ 58.7 to 117 µM) | 8 to 16 µg/mL (≈ 14.7 to 29.3 µM) | < 10 µM | > 128 µg/mL | < 1 µg/mL
CN1CCCN(C(=O)NC(C(=O)N[C@H]2Cc3cccc(C(=O)O)c3OB2O)c2ccc(P(=O)(O)O)cc2)C1=O (stereo partly drawn) [Example 38, (3R)-2-hydroxy-3-(2-(3-methyl-2-oxohexahydropyrimidine-1-carboxamido)-2-(4-phosphonophenyl)acetamido)-3,4-dihydro-2H-benzo[e][1,2]oxaborinine-8-carboxylic acid] | 16 to 32 µg/mL (≈ 28.6 to 57.1 µM) | < 1 µg/mL | > 128 µg/mL | 1 to 2 µg/mL (≈ 1.78 to 3.57 µM) | < 1 µg/mL | 1 to 2 µg/mL (≈ 1.78 to 3.57 µM) | 2 to 4 µg/mL (≈ 3.57 to 7.14 µM) | > 128 µg/mL | > 128 µg/mL | 16 to 32 µg/mL (≈ 28.6 to 57.1 µM) | 8 to 16 µg/mL (≈ 14.3 to 28.6 µM) | 32 to 64 µg/mL (≈ 57.1 to 114 µM) | 32 to 64 µg/mL (≈ 57.1 to 114 µM) | 10 to 50 µM | > 128 µg/mL | < 1 µg/mL
O=C(O)c1cccc2c1OB(O)[C@@H](NC(=O)[C@@H](NC(=O)N1CCNC1=O)c1ccc(P(=O)(O)O)cc1)C2 [Example 39, (R)-2-hydroxy-3-((S)-2-(2-oxoimidazolidine-1-carboxamido)-2-(4-phosphonophenyl)acetamido)-3,4-dihydro-2H-benzo[e][1,2]oxaborinine-8-carboxylic acid] | 16 to 32 µg/mL (≈ 30.1 to 60.1 µM) | < 1 µg/mL | > 128 µg/mL | 1 to 2 µg/mL (≈ 1.88 to 3.76 µM) | < 1 µg/mL | 1 to 2 µg/mL (≈ 1.88 to 3.76 µM) | 2 to 4 µg/mL (≈ 3.76 to 7.52 µM) | > 128 µg/mL | > 128 µg/mL | 16 to 32 µg/mL (≈ 30.1 to 60.1 µM) | 32 to 64 µg/mL (≈ 60.1 to 120 µM) | > 128 µg/mL | > 128 µg/mL | 50 to 250 µM | > 128 µg/mL | < 1 µg/mL
